Data reported in PubChem BioAssay AID2124 (Sanford-Burnham Center for Chemical Genomics, 2009).
Results filed as inconclusive are left out. Calls of active or inactive are those of the source. How the calls were made is not given here; tested in MIN6 cells.

Test: cell-permeable autofluorescent compounds in GFP channel, dose response, artefact control, imaging, high-content imaging (AID 2124);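 further: cells exposed to compound for 48 hours before fixing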
Conditions: cells, GFP-channel autofluorescence, high-content imaging, at 10 µM; for z-score: stronger effect = higher value

SMILES | z-score | cell count
COc1ccc(/C(O)=C/c2nc3ccc(C(=O)NCCc4cccc(C)c4)cc3[nH]c2=O)cc1OC | 0.56 | 1180 cells
COc1ccc(-c2nnn(CC(=O)N(CCO)C(C(=O)NC3CCCC3)c3ccc(F)cc3)n2)cc1 (configuration not stated) | -0.33 (inactive) | 3200 cells
CCN1CCc2c(sc(NC(=O)Nc3ccc(Cl)c(Cl)c3)c2C(N)=O)C1 | 8.59 | 1910 cells
N#C/C(=C/c1ccc(N2CCOCC2)o1)c1nc2ccccc2[nH]1 | 0.11 | 2960 cells
c1ccc2c(N3CCNCC3)nsc2c1 | -0.39 (inactive) | 2010 cells
COc1ccccc1N1CCN(C/C(O)=C(\C#N)c2nc(-c3ccccc3)cs2)CC1 | -0.38 (inactive) | 3090 cells
CCOC(=O)N1CCN(C(=O)NC2CCCCC2)CC1 | -0.38 (inactive) | 3150 cells
CCOc1ccc(-n2c(SCC(=O)NC(C)CC)nc3n[nH]c(C)c3c2=N)cc1 (configuration not stated) | -0.39 (inactive) | 2580 cells
COc1ccc(-n2c(Cc3cccn3C)nnc2SCC(=O)Nc2cccc(C)c2C)cc1 | -0.33 (inactive) | 3130 cells
CCOc1ccc(CNC(=O)CCn2c(=O)oc3ccccc32)cc1 | -0.38 (inactive) | 3060 cells
Cc1cc(=O)oc2cc(OCC(=O)OCC(=O)NC3CC3)ccc12 | -0.38 (inactive) | 3150 cells
O=C(c1cc([N+](=O)[O-])ccc1N1CCCC1)N1CCCC1 | -0.38 (inactive) | 3210 cells
O=c1ccnc(Nc2ccc3c(c2)OCCO3)[nH]1 | -0.39 (inactive) | 2860 cells
COc1ccc(C)cc1NC(=O)COC(C)=O | -0.33 (inactive) | 3030 cells
CCc1cccc2cc3c(N)c(C(=O)Nc4ccc(S(=O)(=O)N5CCCC5)cc4)sc3nc12 | 0.3 | 2430 cells
O=C1/C(=C/c2ccc(N3CCCC3)cc2)NC(=S)N1C1CC1 | 0.41 | 2770 cells

SMILES | z-score | cell count
COc1ccc(OCC(=O)Nc2ccc(S(=O)(=O)Nc3cc(C)nc(C)n3)cc2)cc1 | -0.33 (inactive) | 3070 cells
Cc1ccc(-n2c(C)nc3oc4ccccc4c(=O)c3c2=O)cc1 | -0.33 (inactive) | 3180 cells
O=C(C1=NN(c2ccccc2)C2C(=O)N(c3cccc(Cl)c3)C(=O)C12)c1ccccc1 (configuration not stated) | -0.32 (inactive) | 3140 cells
CN1CCN(c2ccc(/C=C3\C(=O)NC(=S)N(c4cccc(Br)c4)C3=O)o2)CC1 | -0.26 (inactive) | 3260 cells
CC(NC(=O)/C(C#N)=C1\N=C(NC(=O)c2cccs2)c2ccccc21)c1ccccc1 (configuration not stated) | -0.38 (inactive) | 2810 cells
CN1CCNC(=O)C1CC(=O)NCCC1=CCCCC1 (configuration not stated) | -0.38 (inactive) | 3160 cells
Cc1cc(C)n(-c2ccc(OCC(=O)O)nn2)n1 | -0.33 (inactive) | 3400 cells
CCCOc1ccc(-c2nn(-c3ccccc3)cc2/C=C2\SC(=S)N(C3CCS(=O)(=O)C3)C2=O)cc1 (configuration not stated) | -0.23 (inactive) | 2830 cells
Nc1cc2nc3ccccc3nc2cc1N | -0.37 (inactive) | 1390 cells
Oc1c(/C=C/C=C/C=Nc2ccccc2)sc(=S)n1Cc1ccccc1 | -0.33 (inactive) | 2740 cells
CC(C)N1CCc2c(sc(NC(=O)c3cc4cc([N+](=O)[O-])ccc4s3)c2C(N)=O)C1 | -0.23 (inactive) | 177 cells
Cc1ccccc1NCC(=O)N/N=C/c1c[nH]c2ccccc12 | -0.33 (inactive) | 2720 cells
N#CC(C#N)=C1C=C2C=C(N3CCOCC3)CCC2CC1 (configuration not stated) | 1.21 | 3080 cells
O=C(N/N=C\c1cn(-c2ccccc2)nc1-c1ccccc1)c1ccc(Br)o1 | -0.32 (inactive) | 626 cells
O=C(NCC1CCCO1)C1CCN(S(=O)(=O)N2CCCC2)CC1 (configuration not stated) | -0.33 (inactive) | 3190 cells
